Source: patent US20260125397A1, “MK2 DEGRADERS AND USES THEREOF” (Kymera Therapeutics, Inc., priority 2023, published 2026)

Key:
[1] = molecular target: T1, MK2 (Homo sapiens, UniProt P49137); assay: MK2 degradation in human THP-1 monocytic cells (MSD, 24 h); format: cell-based; parameters: endogenous in cells; settings: THP-1 cells; for DC50: read-out: MK2 MSD THP-1 degradation 24 h GMean External Abs DC50
Experimental: The human monocytic cancer cell line THP-1 (ATCC (TIB-202)) was cultured in 96 well plates (Coming 3894) at a density of 200,000 cells per well in 100 microlitres in complete growth medium of RPMI 1640 (Gibco) pus 10% fetal Bovine Serum (Coming) and Penicillin/Streptomycin (SolarBio) at 37 degrees Celsius and 5% CO2. A serial dilution of each compound (usually 3 to 5 fold serial dilutions up to 10 separate concentration points) was added to individual wells from a 10 millimolar stock solution, at a background concentration of 0.1% DMSO and the cells were shaken at 600 rpm for 5 minutes and then were cultured for 24 hours at 37 degrees Celsius and 5% carbon dioxide. Separately, a custom MSD (MesoScaleDiscovery, L15XA-3) plate for detection of human MK2 was prepared by coating the plate with the commercial AbCarn ab247272 reagent in 1× Phosphate Buffered Saline at 40 microlitres per well and incubated at 4 degrees Celsius overnight. The next day, the MSD plate was washed with 150 microlitres of Tween buffered saline, blocked with MSD blocking buffer (3% BlockerA from MSD), and washed again.
(§1) The cell plate was centrifuged at 3,200 g for 5 minutes and the supernatant was discarded and 100 microlitres of RIPA lysis buffer (containing proteinase inhibitors, Boston BioProducts BP-115D) was added and the plate was sealed and shaken on ice for 20 minutes. The plate was centrifuged as before and 70 microlitres of sample lysate was added to the MSD plates and they were shaken at room temperature for I hour at 600 rpm. The MSD plate was washed 3 times as before and then the primary MK2 detection antibody (Santa Cruz sc-100393) was added at a final concentration of 1 microgram per ml at 25 microlitres per well and shaken at room temperature for 1 hour at 600 rpm.
(§2) After 3 more washes, the secondary detection antibody (SULFO-Tag anti rabbit antibody R32AB-5) was added at a final concentration of 1 microgram per ml at 25 microlitres per well and shaken at room temperature for 1 hour at 600 rpm. After 3 more washes, the 1X MSD (diluted from 5X concentrate with water) reading buffer was added at 150 microlitres per well and read on the MSD instrument Meso Sector S 600.
(§3) The inhibition/degradation curves and DC50 values were plotted and calculated using XL Fit (version v5.3.1.3) using equation 201 and a 4 parameter logistic model whereby fit=(A+((B−A)/(1+((x/C)D))) where A is the Bottom and B is the Top and C is the IC50and D is the slope and high C is the signal for the DMSO treated cells and Low C is the signal is the signal for the lysis buffer.

[2] = molecular target: T1, MK2; assay: MK2 degradation in human SW1353 cells (MSD, 24 h); format: cell-based; parameters: endogenous in cells; host or cells: SW-1353 (ATCC HTB-94); settings: for Dmax: read-out: MK2 MSD SW 1353 24 h Dmax %; for DC50: read-out: MK2 MSD SW1353 degradation 24 h GMean External Abs DC50
Experimental: The human chondrocyte cancer cell line SW-1353 (ATCC(HTB-94)) was cultured in 96 well plates (Coming 3894) at a density of 200,000 cells per well in 100 microlitres in complete growth medium of Leibovitz's L-15 Medium (Gibco) pus 10% fetal Bovine Serum (Coming) and Penicillin/Streptomycin (SolarBio) at 37 degrees Celsius. A serial dilution of each compound (usually 3 to 5 fold serial dilutions up to 10 separate concentration points) was added to individual wells from a 10 millimolar stock solution, at a background concentration of 0.10% DMSO and the cells were shaken at 600 rpm for 5 minutes and then were cultured for 24 hours at 37 degrees Celsius. Separately, a custom MSD (MesoScaleDiscovery, L15XA-3) plate for detection of human MK2 was prepared by coating the plate with the commercial AbCam ab247272 reagent in 1× Phosphate Buffered Saline at 40 microlitres per well and incubated at 4 degrees Celsius overnight. The next day, the MSD plate was washed with 150 microlitres of Tween buffered saline, blocked with MSD blocking buffer (3% Blocker A from MSD), and washed again.
as §1, with “for 1” for “for I”
as §2
as §3, with “IC50 and” for “IC50and”

T1 sequence (P49137 whole entry): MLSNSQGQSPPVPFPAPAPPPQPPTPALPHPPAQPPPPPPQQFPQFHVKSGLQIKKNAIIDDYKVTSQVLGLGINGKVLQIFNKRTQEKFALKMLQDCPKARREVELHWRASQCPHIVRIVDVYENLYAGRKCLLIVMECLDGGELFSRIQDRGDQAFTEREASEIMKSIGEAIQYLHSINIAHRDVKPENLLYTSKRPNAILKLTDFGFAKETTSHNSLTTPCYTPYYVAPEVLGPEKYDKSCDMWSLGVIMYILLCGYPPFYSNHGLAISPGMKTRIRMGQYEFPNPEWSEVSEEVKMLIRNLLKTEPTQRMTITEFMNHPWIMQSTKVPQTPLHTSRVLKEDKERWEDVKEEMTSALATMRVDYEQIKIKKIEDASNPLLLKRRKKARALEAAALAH

Structure (SMILES): Cn1c(=O)n(C2CCC(=O)NC2=O)c2ccc(N3CC(CN4CCN(c5ccc(-c6cc(-c7cc8c(o7)C7(CC7)CNC8=O)ccn6)cc5)CC4)C3)cc21 (stereo not shown) [I-28]
- Dmax [1]: > 75%
- DC50 [1]: < 1 nM
- Dmax [2]: > 75%
- DC50 [2]: < 1 nM

Structure (SMILES): Cn1c(=O)n(C2CCC(=O)NC2=O)c2ccc(N3CC(CN4CCN(c5ccc(-c6nccc(-c7cc8c([nH]7)C7(CC7)CNC8=O)n6)cc5C5CC5)CC4)C3)cc21 (stereo not shown) [I-49]
- Dmax [1]: 50 to 75%
- DC50 [1]: < 1 nM
- Dmax [2]: > 50%
- DC50 [2]: 10 to 100 nM

Structure (SMILES): C[C@@H]1CNc2c(sc3ccc4nc(N5CCN(CC6CC7(CCN(c8ccc9c(N%10CCC(=O)NC%10=O)cncc9c8)CC7)C6)CC5)ccc4c23)C(=O)N1 [I-50]
- Dmax [1]: > 75%
- DC50 [1]: < 1 nM
- Dmax [2]: > 75%
- DC50 [2]: < 1 nM

Structure (SMILES): O=C1CCN(c2cncc3c(CCN4CCN(c5ccc(-c6nccc(-c7cc8c([nH]7)C7(CCC7)CNC8=O)n6)c(F)c5)CC4)cccc23)C(=O)N1 [I-31]
- Dmax [1]: > 75%
- DC50 [1]: < 1 nM
- Dmax [2]: > 75%
- DC50 [2]: 1 to 10 nM

Structure (SMILES): C[C@@H]1CNc2c(sc3ccc4nc(N5CCN(CC6CCC7(CC6)CN(c6ccc(NC8CCC(=O)NC8=O)cc6F)C7)CC5)ccc4c23)C(=O)N1 (stereo partly shown) [I-20]
- Dmax [1]: > 75%
- DC50 [1]: 1 to 10 nM
- Dmax [2]: > 75%
- DC50 [2]: 1 to 10 nM

Structure (SMILES): Cn1c(=O)n(C2CCC(=O)NC2=O)c2cccc(OCCN3CCN(c4ccc(-c5nccc(-c6cc7c([nH]6)C6(CC6)CNC7=O)n5)c(F)c4)CC3)c21 (stereo not shown) [I-24]
- Dmax [1]: > 75%
- DC50 [1]: < 1 nM
- Dmax [2]: > 75%
- DC50 [2]: 1 to 10 nM

Structure (SMILES): Cn1c(=O)n(C2CCC(=O)NC2=O)c2ccc(N3CC(CN4CCN(c5ccc(-c6nccc(-c7cc8c([nH]7)C7(CC7)CNC8=O)n6)cc5OC5CC5)CC4)C3)cc21 (stereo not shown) [I-47]
- Dmax [1]: > 50%
- DC50 [1]: < 1 nM
- Dmax [2]: > 50%
- DC50 [2]: > 100 nM

Structure (SMILES): C[C@@H]1CNc2c(sc3ccc4nc(N5CCC(N(CC(F)F)C6CC7(CCN(c8ccc9c(c8)n(C)c(=O)n9C8CCC(=O)NC8=O)CC7)C6)CC5)ccc4c23)C(=O)N1 (stereo partly shown) [I-46]
- Dmax [1]: > 75%
- DC50 [1]: < 1 nM
- Dmax [2]: > 75%
- DC50 [2]: < 1 nM

Structure (SMILES): Cn1c(=O)n(C2CCC(=O)NC2=O)c2cccc(-n3ccc(N4CCN(c5ccc(-c6nccc(-c7cc8c([nH]7)C7(CCCC7)CNC8=O)n6)cc5)CC4)c3)c21 (stereo not shown) [I-32]
- Dmax [1]: > 50%
- DC50 [1]: > 100 nM
- Dmax [2]: > 50%
- DC50 [2]: > 100 nM

Structure (SMILES): COc1cc(-c2nccc(-c3cc4c([nH]3)C3(CC3)CNC4=O)n2)ccc1N1CCN(CC2CN(c3ccc4c(c3)n(C)c(=O)n4C3CCC(=O)NC3=O)C2)CC1 (stereo not shown) [I-54]
- Dmax [1]: 50 to 75%
- DC50 [1]: < 1 nM
- Dmax [2]: > 50%
- DC50 [2]: < 1 nM

Structure (SMILES): C[C@@H]1CNc2c(sc3ccc4nc(N5CCC(OC6CCC7(CC6)CN(c6ccc8c(c6)n(C)c(=O)n8C6CCC(=O)NC6=O)C7)CC5)ccc4c23)C(=O)N1 (stereo partly shown) [I-36]
- Dmax [1]: > 75%
- DC50 [1]: < 1 nM
- Dmax [2]: > 75%
- DC50 [2]: < 1 nM

Structure (SMILES): Cn1c(=O)n(C2CCC(=O)NC2=O)c2ccc(N3CC(CN4CCN(c5ccc(-c6cc(-c7cc8c(o7)C7(CC7)CNC8=O)ncn6)cc5)CC4)C3)cc21 (stereo not shown) [I-29]
- Dmax [1]: > 50%
- DC50 [1]: > 100 nM
- Dmax [2]: > 50%
- DC50 [2]: > 100 nM

Structure (SMILES): Cn1c(=O)n(C2CCC(=O)NC2=O)c2ccc(N3CC(CN4CCN(c5ccc(-c6nccc(-c7cc8c([nH]7)C7(CC7)CNC8=O)n6)cc5)CC4)C3)cc21 (stereo not shown) [I-45]
- Dmax [1]: > 50%
- DC50 [1]: > 100 nM
- Dmax [2]: > 50%
- DC50 [2]: > 100 nM

Structure (SMILES): Cn1c(=O)n(C2CCC(=O)NC2=O)c2ccc(N3CC(CN4CCN(c5ccc(-c6nccc(-c7cc8c([nH]7)C7(CC7)CNC8=O)n6)cc5C(F)(F)F)CC4)C3)cc21 (stereo not shown) [I-48]
- Dmax [1]: > 75%
- DC50 [1]: < 1 nM
- Dmax [2]: 50 to 75%
- DC50 [2]: < 1 nM

Structure (SMILES): C[C@@H]1CNc2c(sc3ccc4nc(N5CCC(COC6CCN(c7ccc8c(c7)n(C)c(=O)n8C7CCC(=O)NC7=O)CC6)CC5)ccc4c23)C(=O)N1 (stereo partly shown) [I-38]
- Dmax [1]: 50 to 75%
- DC50 [1]: < 1 nM
- Dmax [2]: 50 to 75%
- DC50 [2]: < 1 nM

Structure (SMILES): Cn1c(=O)n(C2CCC(=O)NC2=O)c2ccc(N3CC(CN4CCC(N5CCN(c6nccc(-c7cc8c([nH]7)C7(CC7)CNC8=O)n6)CC5)CC4)C3)cc21 (stereo not shown) [I-34]
- Dmax [1]: > 50%
- DC50 [1]: > 100 nM
- Dmax [2]: > 50%
- DC50 [2]: > 100 nM

Structure (SMILES): C[C@@H]1CNc2c(sc3ccc4nc(N5CC[C@H](N(C)C6CC7(CCN(c8ccc9c(c8)n(C)c(=O)n9C8CCC(=O)NC8=O)CC7)C6)C(F)(F)C5)ccc4c23)C(=O)N1 (stereo partly shown) [I-21]
- Dmax [1]: > 75%
- DC50 [1]: < 1 nM
- Dmax [2]: > 75%
- DC50 [2]: < 1 nM

Structure (SMILES): Cn1c(=O)n(C2CCC(=O)NC2=O)c2ccc(N3CCN(CC#Cc4ccc(-c5nccc(-c6cc7c([nH]6)C6(CC6)CNC7=O)n5)cc4)CC3)cc21 (stereo not shown) [I-51]
- Dmax [1]: > 75%
- DC50 [1]: < 1 nM
- Dmax [2]: > 50%
- DC50 [2]: 1 to 10 nM

Structure (SMILES): C[C@@H]1CNc2c(sc3ccc4nc(N5CCN(CCC6CC7(CCN(C(=O)c8ccc(Cl)c(N9CCC(=O)NC9=O)c8)CC7)C6)CC5)ccc4c23)C(=O)N1 [I-35]
- Dmax [1]: > 75%
- DC50 [1]: < 1 nM
- Dmax [2]: > 75%
- DC50 [2]: < 1 nM

Structure (SMILES): Cn1c(=O)n(C2CCC(=O)NC2=O)c2ccc(N3CC(CN4CCN(c5ccc(-c6cc(-c7cc8c([nH]7)C7(CC7)CNC8=O)ncn6)cc5)CC4)C3)cc21 (stereo not shown) [I-30]
- Dmax [1]: 50 to 75%
- DC50 [1]: < 1 nM
- Dmax [2]: 50 to 75%
- DC50 [2]: < 1 nM

Structure (SMILES): C[C@@H]1CNc2c(sc3ccc4nc(N5CCN(CC6CCC7(CC6)CN(c6ccc8c(N9CCC(=O)NC9=O)cncc8c6)C7)CC5)ccc4c23)C(=O)N1 [I-23]
- Dmax [1]: > 75%
- DC50 [1]: < 1 nM
- Dmax [2]: > 75%
- DC50 [2]: < 1 nM

Structure (SMILES): Cn1c(=O)n(C2CCC(=O)NC2=O)c2ccc(N3CC(CN4CCN(c5ccc(-c6nccc(-c7cc8c([nH]7)C(C)(C)CNC8=O)n6)cc5)CC4)C3)cc21 (stereo not shown) [I-22]
- Dmax [1]: > 75%
- DC50 [1]: < 1 nM
- Dmax [2]: > 75%
- DC50 [2]: < 1 nM

Structure (SMILES): C[C@@H]1CNc2c(sc3ccc4nc(N5CCN(C[C@H]6C[C@@]7(CCN(c8ccc9c(c8)n(C)c(=O)n9C8CCC(=O)NC8=O)C7)C6)CC5)ccc4c23)C(=O)N1 (stereo partly shown) [I-40]
- Dmax [1]: > 75%
- DC50 [1]: < 1 nM
- Dmax [2]: > 75%
- DC50 [2]: < 1 nM

Structure (SMILES): Cn1c(=O)n(C2CCC(=O)NC2=O)c2ccc(N3CC(CN4CCN(c5ccc(-c6nccc(-c7cc8c([nH]7)C7(CC7)CNC8=O)n6)cc5C#N)CC4)C3)cc21 (stereo not shown) [I-37]
- Dmax [1]: > 75%
- DC50 [1]: < 1 nM
- Dmax [2]: > 75%
- DC50 [2]: < 1 nM

Structure (SMILES): C[C@@H]1CNc2c(sc3ccc4nc(N5CCN(C[C@H]6C[C@]7(CCN(c8ccc9c(c8)n(C)c(=O)n9C8CCC(=O)NC8=O)C7)C6)CC5)ccc4c23)C(=O)N1 (stereo partly shown) [I-39]
- Dmax [1]: > 50%
- DC50 [1]: < 1 nM
- Dmax [2]: > 50%
- DC50 [2]: < 1 nM
